IC50 data for 22 compounds are collected here from US20210253575A1, “PYRROLIDINE AMINE COMPOUNDS FOR THE TREATMENT OF AUTOIMMUNE DISEASE” (Hoffmann-La Roche Inc., priority 2018, published 2021).

Structures are written as SMILES.

For orientation: IC50 means the midpoint of a concentration-inhibition curve.

In the assay the target is T1, human TLR9 (Homo sapiens, UniProt Q9NR96).
T1 sequence (Q9NR96 26-1032): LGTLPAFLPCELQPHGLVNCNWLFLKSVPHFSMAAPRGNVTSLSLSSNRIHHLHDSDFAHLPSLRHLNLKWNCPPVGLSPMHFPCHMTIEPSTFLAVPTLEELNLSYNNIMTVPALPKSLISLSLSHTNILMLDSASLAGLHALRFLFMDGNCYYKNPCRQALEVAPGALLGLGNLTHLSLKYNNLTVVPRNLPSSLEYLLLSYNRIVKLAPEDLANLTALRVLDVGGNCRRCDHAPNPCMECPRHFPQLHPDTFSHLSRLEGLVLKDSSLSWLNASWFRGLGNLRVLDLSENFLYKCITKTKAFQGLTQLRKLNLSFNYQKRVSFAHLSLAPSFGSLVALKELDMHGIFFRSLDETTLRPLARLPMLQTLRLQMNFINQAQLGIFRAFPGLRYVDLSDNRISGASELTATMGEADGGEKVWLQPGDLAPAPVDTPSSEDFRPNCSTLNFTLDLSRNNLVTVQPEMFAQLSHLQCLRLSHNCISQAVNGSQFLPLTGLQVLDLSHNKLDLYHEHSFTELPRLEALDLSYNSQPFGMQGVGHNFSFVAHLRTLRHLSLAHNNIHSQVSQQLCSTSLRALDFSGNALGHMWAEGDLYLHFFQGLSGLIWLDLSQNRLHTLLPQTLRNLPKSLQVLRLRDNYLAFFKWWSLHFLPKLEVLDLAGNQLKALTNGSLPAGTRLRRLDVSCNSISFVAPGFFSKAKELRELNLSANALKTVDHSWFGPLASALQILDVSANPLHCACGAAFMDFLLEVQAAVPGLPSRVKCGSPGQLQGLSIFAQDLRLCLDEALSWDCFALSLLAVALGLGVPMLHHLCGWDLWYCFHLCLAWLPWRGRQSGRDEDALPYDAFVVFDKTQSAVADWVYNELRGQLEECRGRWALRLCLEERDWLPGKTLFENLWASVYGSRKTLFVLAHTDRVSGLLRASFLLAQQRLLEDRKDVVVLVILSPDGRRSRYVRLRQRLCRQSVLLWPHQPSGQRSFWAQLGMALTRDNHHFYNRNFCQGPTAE
The assay is described as follows: HEK293-Blue-hTLR-9 cells assay (SEAP reporter, ODN2006 stimulation). It is filed as cell-based. The settings on record: HEK293-Blue-hTLR9 cells, ODN2006 ligand, 20 hrs incubation. The method, then:
The following tests were carried out in order to determine the activity of the compounds of formula (I) in HEK293-Blue-hTLR-7/8/9 cells assay.
HEK293-Blue-hTLR-9 Cells Assay:
A stable HEK293-Blue-hTLR-9 cell line was purchased from InvivoGen (Cat. #: hkb-htlr9, San Diego, Calif., USA). These cells were originally designed for studying the stimulation of human TLR9 by monitoring the activation of NF-κB. A SEAP (secreted embryonic alkaline phosphatase) reporter gene was placed under the control of the IFN-β minimal promoter fused to five NF-κB and AP-1-binding sites. The SEAP was induced by activating NF-κB and AP-1 via stimulating HEK-Blue hTLR9 cells with TLR9 ligands. Therefore the reporter expression was declined by TLR9 antagonist under the stimulation of a ligand, such as ODN2006 (Cat. #: tlrl-2006-1, Invivogen, San Diego, Calif., USA), for incubation of 20 hrs. The cell culture supernatant SEAP reporter activity was determined using QUANTI-Blue™ kit (Cat. #: rep-qb1, Invivogen, San Diego, Calif., USA) at a wavelength of 640 nm, a detection medium that turns purple or blue in the presence of alkaline phosphatase.
HEK293-Blue-hTLR9 cells were incubated at a density of 250,000˜450,000 cells/mL in a volume of 170 μL in a 96-well plate in Dulbecco's Modified Eagle's medium (DMEM) containing 4.5 g/L glucose, 50 U/mL penicillin, […], […], 2 mM L-glutamine, 10% (v/v) heat-inactivated fetal bovine serum with addition of 20 μL test compound in a serial dilution in the presence of final DMSO at 1% and 10 μL of 20 uM ODN2006 in above DMEM, perform incubation under 37° C. in a CO2incubator for 20 hrs. Then 20 μL of the superatant from each well was incubated with 180 μL Quanti-blue substrate solution at 37° C. for 2 hrs and the absorbance was read at 620˜655 nm using a spectrophotometer. The signalling pathway that TLR9 activation leads to downstream NF-κB activation has been widely accepted, and therefore similar reporter assay was modified for evaluating TLR9 antagonist.
Regarding `N#Cc1ccc(N2C[C@H](CN3CCC(N4CCCCCC4)CC3)[C@@H](C(F)(F)F)C2)c2nccnc12` [Example 62, 8-[(3S,4R)-3-[[4-(Azepan-1-yl)-1-piperidyl]methyl]-4-(trifluoromethyl)pyrrolidin-1-yl]quinoxaline-5-carbonitrile], half-maximal inhibition (IC50) required 409 nM.

On to `N#Cc1ccc(N2C[C@H](CN3CCC4(CCNC4)CC3)[C@@H](C(F)(F)F)C2)c2cccnc12` [Example 54, 5-[(3S,4R)-3-(2,8-Diazaspiro[4.5]decan-8-ylmethyl)-4-(trifluoromethyl)pyrrolidin-1-yl]quinoline-8-carbonitrile], for which the IC50 is 152 nM. To `N#Cc1ccc(N2C[C@H](CN3CCC(N)C(F)(F)C3)[C@@H](C(F)(F)F)C2)c2nccnc12` (stereo partly drawn) [Example 64, 8-[(3S,4R)-3-[(4-amino-3,3-difluoro-1-piperidyl)methyl]-4-(trifluoromethyl)pyrrolidin-1-yl]quinoxaline-5-carbonitrile] belongs 23100 nM; to `N#Cc1ccc(N2CC(CN3CCOC4(CCNCC4)C3)C3(CC3)C2)c2nccnc12` (stereo not shown) [Example 67, 8-[7-(1-Oxa-4,9-diazaspiro[5.5]undecan-4-ylmethyl)-5-azaspiro[2.4]heptan-5-yl]quinoxaline-5-carbonitrile], 869 nM; to `N#Cc1ccc(N2CC(CN3CCC4(CCNCC4)CC3)C3(CC3)C2)c2nccnc12` (stereo not shown) [Example 16, 8-[7-(3,9-Diazaspiro[5.5]undecan-3-ylmethyl)-5-azaspiro[2.4]heptan-5-yl]quinoxaline-5-carbonitrile], 50 nM.

The compound `N#Cc1ccc(N2C[C@H](CN3CCC(N)CC3)[C@@H](C(F)(F)F)C2)c2nccnc12` [Example 51, 8-[(3S,4R)-3-[(4-amino-1-piperidyl)methyl]-4-(trifluoromethyl)pyrrolidin-1-yl]quinoxaline-5-carbonitrile] registered an IC50 of 359 nM. Compound `N#Cc1ccc(N2C[C@@H](CN3CCC4(CCNCC4)CC3)[C@H](C3CC3)C2)c2cccnc12` (relative stereo) [Example 28, 5-[Trans-3-cyclopropyl-4-(3,9-diazaspiro[5.5]undecan-3-ylmethyl)pyrrolidin-1-yl]quinoline-8-carbonitrile] came in with an IC50 of 39 nM.

Turning to `C[C@@H]1CN(c2ccc(C(F)(F)F)c3nccnc23)C[C@H]1CN1CCC2(CCNCC2)CC1` (relative stereo) [Example 21, 3-[[Trans-4-methyl-1-[8-(trifluoromethyl)quinoxalin-5-yl]pyrrolidin-3-yl]methyl]-3,9-diazaspiro[5.5]undecane], the concentration for half-maximal inhibition (IC50) worked out at 294 nM. In the case of `N#Cc1ccc(N2CC(CN3C4CCC3CC(N)C4)C3(CC3)C2)c2nccnc12` (stereo not shown) [Example 25, 8-[7-[(3-Amino-8-azabicyclo[3.2.1]octan-8-yl)methyl]-5-azaspiro[2.4]heptan-5-yl]quinoxaline-5-carbonitrile], it took 75 nM to reach half-maximal inhibition (IC50). Compared with the last compound, the IC50 is about 3.9-fold lower. For `C[C@H]1CN(c2ccc(C#N)c3nccnc23)C[C@@H]1CN1CCC2(CCNC2)C1` (stereo partly drawn) [Example 30, 8-[(3S,4R)-3-(2,7-diazaspiro[4.4]nonan-2-ylmethyl)-4-methyl-pyrrolidin-1-yl]quinoxaline-5-carbonitrile], half-maximal inhibition (IC50) was put at 307 nM. To `C[C@H]1CN(C[C@H]2CN(c3ccc(C#N)c4nccnc34)C[C@@H]2C(F)(F)F)CC[C@H]1N` [Example 72, 8-[(3S,4R)-3-[[(3S,4R)-4-amino-3-methyl-1-piperidyl]methyl]-4-(trifluoromethyl)pyrrolidin-1-yl]quinoxaline-5-carbonitrile] belongs 506 nM; to `N#Cc1ccc(N2C[C@H](CN3CC4(CC(N)C4)C3)[C@@H](C(F)(F)F)C2)c2nccnc12` [Example 47, 8-[(3S,4R)-3-[(6-amino-2-azaspiro[3.3]heptan-2-yl)methyl]-4-(trifluoromethyl)pyrrolidin-1-yl]quinoxaline-5-carbonitrile], 177 nM. To `N#Cc1ccc(N2CC(CN3CCC(N4CCOCC4)CC3)C3(CC3)C2)c2nccnc12` (stereo not shown) [Example 58, 8-[7-[(4-Morpholino-1-piperidyl)methyl]-5-azaspiro[2.4]heptan-5-yl]quinoxaline-5-carbonitrile] belongs 605 nM; to `N#Cc1ccc(N2C[C@H](CN3CC4(CCCNC4)C3)[C@@H](C(F)(F)F)C2)c2cccnc12` [Example 8, 5-[(3S,7R)-3-(2,8-diazaspiro[3.5]nonan-2-ylmethyl)-4-(trifluoromethyl)pyrrolidin-1-yl]quinoline-8-carbonitrile], 113 nM. To `N#Cc1ccc(N2C[C@H](CN3CCC4(CCNCC4)CC3)[C@@H](C(F)(F)F)C2)c2nccnc12` [Example 1, 8-[(3S,4R)-3-(3,9-diazaspiro[5.5]undecan-3-ylmethyl)-4-(trifluoromethyl)pyrrolidin-1-yl]quinoxaline-5-carbonitrile] belongs 106 nM; to `N#Cc1ccc(N2CC(CN3C[C@H]4CNC[C@H]4C3)C3(CC3)C2)c2nccnc12` (stereo partly drawn) [Example 18, 8-[7-[[(3aR,6aS)-2,3,3a,4,6,6a-hexahydro-H-pyrrolo[3,4-c]pyrrol-5-yl]methyl]-5-azaspiro[2.4]heptan-5-yl]quinoxaline-5-carbonitrile], 97 nM; to `CN(C)C1CCN(C[C@H]2CN(c3ccc(C#N)c4nccnc34)C[C@@H]2C(F)(F)F)CC1` [Example 80, 8-[(3S,4R)-3-[[4-(dimethylamino)-1-piperidyl]methyl]-4-(trifluoromethyl)pyrrolidin-1-yl]quinoxaline-5-carbonitrile], 706 nM. In the case of `FC(F)(F)c1ccc(N2CC(CN3C[C@H]4CNC[C@H]4C3)C3(CC3)C2)c2nccnc12` (stereo partly drawn) [Example 41, 5-[7-[[(3aR,6aS)-2,3,3a,4,6,6a-hexahydro-H-pyrrolo[3,4-c]pyrrol-5-yl]methyl]-5-azaspiro[2.4]heptan-5-yl]-8-(trifluoromethyl)quinoxaline], 1200 nM corresponded to half-maximal inhibition (IC50). This IC50 lies about 1.7-fold higher than the previous one. To `N#Cc1ccc(N2C[C@H](CN3CC4CCC(C3)C4N)[C@@H](C(F)(F)F)C2)c2nccnc12` (stereo partly drawn) [Example 73, 8-[(3S,4R)-3-[(8-amino-3-azabicyclo[3.2.1]octan-3-yl)methyl]-4-(trifluoromethyl)pyrrolidin-1-yl]quinoxaline-5-carbonitrile] belongs 1190 nM; to `CNCC1CCN(C[C@H]2CN(c3ccc(C#N)c4nccnc34)C[C@@H]2C(F)(F)F)CC1` [Example 81, 8-[(3S,4R)-3-[[4-(methylaminomethyl)-1-piperidyl]methyl]-4-(trifluoromethyl)pyrrolidin-1-yl]quinoxaline-5-carbonitrile], 218 nM. As to `N#Cc1ccc(N2C[C@H](CN3CCC(CN)CC3)[C@@H](C(F)(F)F)C2)c2nccnc12` [Example 74, 8-[(3S,4R)-3-[[4-(aminomethyl)-1-piperidyl]methyl]-4-(trifluoromethyl)pyrrolidin-1-yl]quinoxaline-5-carbonitrile], half-maximal inhibition (IC50) was put at 325 nM. Take `N#Cc1ccc(N2C[C@H](CN3CC4CCC3CN4)[C@@H](C(F)(F)F)C2)c2nccnc12` (stereo partly drawn) [Example 77, 8-[(3S,4R)-3-(2,5-diazabicyclo[2.2.2]octan-2-ylmethyl)-4-(trifluoromethyl)pyrrolidin-1-yl]quinoxaline-5-carbonitrile]: half-maximal inhibition (IC50) was put at 2340 nM.
